Measurements reported in patent US20220162167A1, “SUBSTITUTED BICYCLIC AND TETRACYCLIC QUINONES AND USE THEREOF AS ANTI-CANCER AGENTS” (THE REGENTS OF THE UNIVERSITY OF MICHIGAN, priority 2019, published 2022).

Experiments:
Format in all cases: cell-based
M14 = assay: NCI60 growth inhibition, M14; conditions: Melanoma
Description: (§1) Representative compounds were tested in 60 cell lines (NCI60) at the National Cancer Institute, Developmental Therapeutics Program.
(§2) Representative compounds were tested in a panel of 60 cancer cells (NCI 60) at the National Cancer Institute. Growth inhibition are shown in table 2, table 3, table 4, table 5, and FIG. 1, FIG. 2, FIG. 3, FIG. 4, FIG. 5.

OVCAR-5 = assay: NCI60 growth inhibition, OVCAR-5; conditions: Ovarian Cancer
Description: as §1, §2

RXF 393 = assay: NCI60 growth inhibition, RXF 393; conditions: Renal Cancer
Description: as §1, §2

HS 578T = assay: NCI60 growth inhibition, HS 578T; conditions: Breast Cancer
Description: as §1, §2

CCRF-CEM = assay: NCI60 growth inhibition, CCRF-CEM; conditions: Leukemia
Description: as §1, §2

SF-268 = assay: NCI60 growth inhibition, SF-268; conditions: CNS Cancer; also: test concentration or dose not given here
Description: as §1, §2

HOP-92 = assay: NCI60 growth inhibition, HOP-92; conditions: Non-Small Cell Lung Cancer
Description: as §1, §2

HT29 = assay: NCI60 growth inhibition, HT29; conditions: Colon Cancer
Description: as §1, §2

NCI/ADR-RES = assay: NCI60 growth inhibition, NCI/ADR-RES; conditions: Ovarian Cancer
Description: as §1, §2

UACC-257 = assay: NCI60 growth inhibition, UACC-257; conditions: Melanoma; also: test concentration or dose not given here
Description: as §1, §2

PC-3 = assay: NCI60 growth inhibition, PC-3; conditions: Prostate Cancer
Description: as §1, §2

NCI-H522 = assay: NCI60 growth inhibition, NCI-H522; conditions: Non-Small Cell Lung Cancer
Description: as §1, §2

IGROV1 = assay: NCI60 growth inhibition, IGROV1; conditions: Ovarian Cancer
Description: as §1, §2

SNB-19 = assay: NCI60 growth inhibition, SNB-19; conditions: CNS Cancer; also: test concentration or dose not given here
Description: as §1, §2

EKVX = assay: NCI60 growth inhibition, EKVX; conditions: Non-Small Cell Lung Cancer
Description: as §1, §2

MDA-MB-435 = assay: NCI60 growth inhibition, MDA-MB-435; conditions: Melanoma
Description: as §1, §2

MDA-MB-231/ATCC = assay: NCI60 growth inhibition, MDA-MB-231/ATCC; conditions: Breast Cancer
Description: as §1, §2

NCI-H460 = assay: NCI60 growth inhibition, NCI-H460; conditions: Non-Small Cell Lung Cancer
Description: as §1, §2

A549/ATCC = assay: NCI60 growth inhibition, A549/ATCC; conditions: Non-Small Cell Lung Cancer
Description: as §1, §2

T-47D = assay: NCI60 growth inhibition, T-47D; conditions: Breast Cancer
Description: as §1, §2

NCI-H23 = assay: NCI60 growth inhibition, NCI-H23; conditions: Non-Small Cell Lung Cancer
Description: as §1, §2

SK-MEL-5 = assay: NCI60 growth inhibition, SK-MEL-5; conditions: Melanoma
Description: as §1, §2

HOP-62 = assay: NCI60 growth inhibition, HOP-62; conditions: Non-Small Cell Lung Cancer; also: test concentration or dose not given here
Description: as §1, §2

HCT-116 = assay: NCI60 growth inhibition, HCT-116; conditions: Colon Cancer
Description: as §1, §2

SF-539 = assay: NCI60 growth inhibition, SF-539; conditions: CNS Cancer
Description: as §1, §2

786-0 = assay: NCI60 growth inhibition, 786-0; conditions: Renal Cancer
Description: as §1, §2

UO-31 = assay: NCI60 growth inhibition, UO-31; conditions: Renal Cancer
Description: as §1, §2

K-562 = assay: NCI60 growth inhibition, K-562; conditions: Leukemia
Description: as §1, §2

COLO 205 = assay: NCI60 growth inhibition, COLO 205; conditions: Colon Cancer
Description: as §1, §2

U251 = assay: NCI60 growth inhibition, U251; conditions: CNS Cancer
Description: as §1, §2

RPMI-8226 = assay: NCI60 growth inhibition, RPMI-8226; conditions: Leukemia
Description: as §1, §2

LOX IMVI = assay: NCI60 growth inhibition, LOX IMVI; conditions: Melanoma
Description: as §1, §2

NCI-H226 = assay: NCI60 growth inhibition, NCI-H226; conditions: Non-Small Cell Lung Cancer; also: test concentration or dose not given here
Description: as §1, §2

MDA-MB-468 = assay: NCI60 growth inhibition, MDA-MB-468; conditions: Breast Cancer; also: test concentration or dose not given here
Description: as §1, §2

OVCAR-3 = assay: NCI60 growth inhibition, OVCAR-3; conditions: Ovarian Cancer
Description: as §1, §2

MCF7 = assay: NCI60 growth inhibition, MCF7; conditions: Breast Cancer
Description: as §1, §2

SNB-75 = assay: NCI60 growth inhibition, SNB-75; conditions: CNS Cancer; also: test concentration or dose not given here
Description: as §1, §2

ACHN = assay: NCI60 growth inhibition, ACHN; conditions: Renal Cancer
Description: as §1, §2

TK-10 = assay: NCI60 growth inhibition, TK-10; conditions: Renal Cancer
Description: as §1, §2

NCI-H322M = assay: NCI60 growth inhibition, NCI-H322M; conditions: Non-Small Cell Lung Cancer
Description: as §1, §2

HCT-15 = assay: NCI60 growth inhibition, HCT-15; conditions: Colon Cancer; also: test concentration or dose not given here
Description: as §1, §2

MOLT-4 = assay: NCI60 growth inhibition, MOLT-4; conditions: Leukemia
Description: as §1, §2

SW-620 = assay: NCI60 growth inhibition, SW-620; conditions: Colon Cancer; also: test concentration or dose not given here
Description: as §1, §2

CAKI-1 = assay: NCI60 growth inhibition, CAKI-1; conditions: Renal Cancer; also: test concentration or dose not given here
Description: as §1, §2

HCC-2998 = assay: NCI60 growth inhibition, HCC-2998; conditions: Colon Cancer
Description: as §1, §2

KM12 = assay: NCI60 growth inhibition, KM12; conditions: Colon Cancer; also: test concentration or dose not given here
Description: as §1, §2

A498 = assay: NCI60 growth inhibition, A498; conditions: Renal Cancer; also: test concentration or dose not given here
Description: as §1, §2

HL-60(TB) = assay: NCI60 growth inhibition, HL-60(TB); conditions: Leukemia
Description: as §1, §2

SN12C = assay: NCI60 growth inhibition, SN12C; conditions: Renal Cancer
Description: as §1, §2

MALME-3M = assay: NCI60 growth inhibition, MALME-3M; conditions: Melanoma
Description: as §1, §2

SK-MEL-28 = assay: NCI60 growth inhibition, SK-MEL-28; conditions: Melanoma
Description: as §1, §2

OVCAR-4 = assay: NCI60 growth inhibition, OVCAR-4; conditions: Ovarian Cancer; also: test concentration or dose not given here
Description: as §1, §2

SR = assay: NCI60 growth inhibition, SR; conditions: Leukemia
Description: as §1, §2

DU-145 = assay: NCI60 growth inhibition, DU-145; conditions: Prostate Cancer
Description: as §1, §2

SF-295 = assay: NCI60 growth inhibition, SF-295; conditions: CNS Cancer; also: test concentration or dose not given here
Description: as §1, §2

UACC-62 = assay: NCI60 growth inhibition, UACC-62; conditions: Melanoma; also: test concentration or dose not given here
Description: as §1, §2

SK-OV-3 = assay: NCI60 growth inhibition, SK-OV-3; conditions: Ovarian Cancer
Description: as §1, §2

SK-MEL-2 = assay: NCI60 growth inhibition, SK-MEL-2; conditions: Melanoma; also: test concentration or dose not given here
Description: as §1, §2

In the case of Cc1ccc2c(n1)C(=O)C(Cl)=C(Nc1ccc(N3CCN(C)CC3)cc1)C2=O [Compound 13, 7-chloro-2-methyl-6-((4-(4-methylpiperazin-1-yl)phenyl)amino)quinoline-5,8-dione], the “Growth inhibition (% control) GIPRCNT” value (M14) is reported as 73.83 % control, the “Growth inhibition (% control) GIPRCNT” value (OVCAR-5) is reported as −7.548 % control and the “Growth inhibition (% control) GIPRCNT” value (RXF 393) is reported as 62.78 % control. The “Growth inhibition (% control) GIPRCNT” value (HS 578T) was 58 % control, the “Growth inhibition (% control) GIPRCNT” value (CCRF-CEM) was −6.237 % control and the “Growth inhibition (% control) GIPRCNT” value (SF-268) was 77.72 % control. The “Growth inhibition (% control) GIPRCNT” value (HOP-92) was −86.301 % control, the “Growth inhibition (% control) GIPRCNT” value (HT29) was 66.44 % control and the “Growth inhibition (% control) GIPRCNT” value (NCI/ADR-RES) was 27.61 % control. For the same compound, the “Growth inhibition (% control) GIPRCNT” value (UACC-257) was 57.23 % control, the “Growth inhibition (% control) GIPRCNT” value (PC-3) was 68.66 % control and the “Growth inhibition (% control) GIPRCNT” value (NCI-H522) was −63.7561 % control. The “Growth inhibition (% control) GIPRCNT” value (IGROV1) was −83.5269 % control, the “Growth inhibition (% control) GIPRCNT” value (SNB-19) was 94.6 % control and the “Growth inhibition (% control) GIPRCNT” value (EKVX) was −81.7903 % control. For the same compound, the “Growth inhibition (% control) GIPRCNT” value (MDA-MB-435) was −99.1118 % control, the “Growth inhibition (% control) GIPRCNT” value (MDA-MB-231/ATCC) was −62.773 % control and the “Growth inhibition (% control) GIPRCNT” value (NCI-H460) was 97.22 % control. The “Growth inhibition (% control) GIPRCNT” value (A549/ATCC) was 97.64 % control, the “Growth inhibition (% control) GIPRCNT” value (T-47D) was −61.1209 % control and the “Growth inhibition (% control) GIPRCNT” value (NCI-H23) was 16.65 % control. The “Growth inhibition (% control) GIPRCNT” value (SK-MEL-5) was 10.39 % control, the “Growth inhibition (% control) GIPRCNT” value (HOP-62) was 63.65 % control and the “Growth inhibition (% control) GIPRCNT” value (HCT-116) was −64.939 % control. For the same compound, the “Growth inhibition (% control) GIPRCNT” value (SF-539) was −24.5048 % control, the “Growth inhibition (% control) GIPRCNT” value (786-0) was 52.18 % control and the “Growth inhibition (% control) GIPRCNT” value (UO-31) was −97.3532 % control. For the same compound, the “Growth inhibition (% control) GIPRCNT” value (K-562) was −12.2778 % control, the “Growth inhibition (% control) GIPRCNT” value (COLO 205) was 82.4617 % control and the “Growth inhibition (% control) GIPRCNT” value (U251) was 8.466 % control. The “Growth inhibition (% control) GIPRCNT” value (RPMI-8226) was −32.551 % control, the “Growth inhibition (% control) GIPRCNT” value (LOX IMVI) was −95.4404 % control and the “Growth inhibition (% control) GIPRCNT” value (NCI-H226) was 105.4813 % control. For the same compound, the “Growth inhibition (% control) GIPRCNT” value (MDA-MB-468) was −84.6413 % control, the “Growth inhibition (% control) GIPRCNT” value (OVCAR-3) was −100 % control and the “Growth inhibition (% control) GIPRCNT” value (MCF7) was −61.9194 % control. The “Growth inhibition (% control) GIPRCNT” value (SNB-75) was −53.8363 % control, the “Growth inhibition (% control) GIPRCNT” value (ACHN) was −93.75 % control and the “Growth inhibition (% control) GIPRCNT” value (TK-10) was 100.0838 % control. For the same compound, the “Growth inhibition (% control) GIPRCNT” value (NCI-H322M) was 97.35 % control, the “Growth inhibition (% control) GIPRCNT” value (HCT-15) was 70.44 % control and the “Growth inhibition (% control) GIPRCNT” value (MOLT-4) was −25.588 % control. The “Growth inhibition (% control) GIPRCNT” value (SW-620) was −69.7878 % control, the “Growth inhibition (% control) GIPRCNT” value (CAKI-1) was −100 % control and the “Growth inhibition (% control) GIPRCNT” value (HCC-2998) was 95.31 % control. For the same compound, the “Growth inhibition (% control) GIPRCNT” value (KM12) was 92.08 % control, the “Growth inhibition (% control) GIPRCNT” value (A498) was 100.8258 % control and the “Growth inhibition (% control) GIPRCNT” value (HL-60(TB)) was −46.6759 % control. For the same compound, the “Growth inhibition (% control) GIPRCNT” value (SN12C) was −88.5465 % control, the “Growth inhibition (% control) GIPRCNT” value (MALME-3M) was −75.4481 % control and the “Growth inhibition (% control) GIPRCNT” value (SK-MEL-28) was 30.32 % control. For the same compound, the “Growth inhibition (% control) GIPRCNT” value (OVCAR-4) was −100 % control, the “Growth inhibition (% control) GIPRCNT” value (SR) was −5.054 % control and the “Growth inhibition (% control) GIPRCNT” value (DU-145) was −18.6864 % control. For the same compound, the “Growth inhibition (% control) GIPRCNT” value (SF-295) was 99.36 % control, the “Growth inhibition (% control) GIPRCNT” value (UACC-62) was −49.3593 % control and the “Growth inhibition (% control) GIPRCNT” value (SK-OV-3) was 89.88 % control. For the same compound, the “Growth inhibition (% control) GIPRCNT” value (SK-MEL-2) was 68.36 % control.
